Experimental findings from patent publication US20080026986A1, “REVERSAL OF THE SUPPRESSIVE FUNCTION OF SPECIFIC T CELLS VIA TOLL-LIKE RECEPTOR 8 SIGNALING” (priority 2006, published 2008) are described below.

Entries after “also recorded” stand apart in the source; their conditions may differ.

Experiment [1] has as its system naturally occurring CD4+ CD25+ Treg cells. Briefly: Reversal of suppressive function of naturally occurring CD4+ CD25+ Treg cells. It counts as cell-based.
Experiment [2] concerns PTIL194 and PTIL237. Put plainly: Reversal of suppressive function of PTIL194 and PTIL237 by TLR ligands (naïve CD4+ T cell proliferation). As to conditions: naïve CD4+ T cells:Treg 10:1, OKT3-coated plates, FIG. 5A. It counts as cell-based, human. The method, then: (§1) (C) Expression of TLR8 mRNA in CD4^+ Treg and CD8^+ Treg cell clones generated from PTIL194 by RT-PCR.
Naïve CD4^+ T cells were purified from PBMCs by using microbeads (Miltenyi Biotec). Naïve CD4^+ T cells (10^5/well) were cultured with regulatory T cells at a ratio of 10:1 in OKT3 (2 μg/ml)-coated, U bottomed 96-well plates containing the following TLR ligands. […] CpG-A (3 μg/ml), CpG-B (3 μg/ml) and poly-G3 oligonucleotides (3 μg/ml) were synthesized by Integrated DNA Technologies (Coralville, Iowa). All experiments were performed at least more than once.
CD4^+ CD25-T cells (2×10^5) purified from human PBMCs by antibody-coated beads (Dynal, Inc.) were cultured for 60 hours in U-bottomed 96-well plates containing 5×104 CD3-depleted APCs, 0.1 μg/ml anti-CD3 mAb, and different numbers of CD4^+ regulatory or effector T cells. The proliferation of responder T cells was determined by the incorporation of [H^3]thymidine for the last 16 hours of culture, as previously described (Wang et al., 2004; Wang et al., 2005). Cells were harvested and the radioactivity counted in a scintillation counter. All experiments were performed in triplicate. Transwell experiments were performed in 24-well plates with a pore size of 0.4 μm (Coming Costar, Cambridge, Mass.). 2×10^5 the freshly purified naïve CD4^+ T cells were cultured in the outer wells of 24-well plate in medium containing 0.1 μg/ml anti-CD3 antibody and 2×10^5 APCs. Equal numbers of regulatory T cells or nonregulatory T cells were added into the inner wells in the same medium containing 0.5 μg/ml anti-CD3 antibody and 2×10^5 APCs. After 56 hours of culture, the cells in the outer and inner wells were harvested separately and transferred to 96-well plates. [H^3]thymidine was added, and the cells were cultured for an additional 16 hours before harvest for the radioactivity counting with a liquid scintillation counter.
Naïve CD4^+ T cells were purified from PBMCs by use of microbeads (Miltenyi Biotec). Naïve CD4^+ T cells (10^5/well) were cultured with regulatory T cells at a ratio of 10:1 in OKT3 (2 μg/ml)-coated, U bottomed 96-well plates containing the following ligands. […] CpG-A (3 μg/ml), CpG-B (3 μg/ml) and poly-G oligonucleotides (3 μg/ml) were synthesized by Integrated DNA Technologies (Coralville, Iowa).

For experiment [3], the system named is CD8+ Treg cells. Briefly: Naïve T cell proliferation assay with CD8+ Treg cell populations/clones with or without TLR ligands. The note with it: prostate tumor-derived (PTIL194); FIGS. 5A, 5B. Format: cell-based, human. The method, then: as §1
(§2) To test this possibility, the suppressive effects of CD4^+ and CD8^+ Treg cells were examined on naïve T cell proliferation in a functional assay, with or without TLR8 ligands (Poly-G2 and ssRNA40) or ligands for other TLRs.
(§3) CD4^+ CD25-T cells (2×10^5) purified from human PBMCs by antibody-coated beads (Dynal, Inc.) were cultured for 60 hours in U-bottomed 96-well plates containing 5×104 CD3-depleted APCs, 0.1 μg/ml anti-CD3 mAb, and different numbers of CD4^+ regulatory or effector T cells. The proliferation of responder T cells was determined by the incorporation of [H^3]thymidine for the last 16 hours of culture, as previously described (Wang et al., 2004; Wang et al., 2005). Cells were harvested and the radioactivity counted in a scintillation counter. All experiments were performed in triplicate. Transwell experiments were performed in 24-well plates with a pore size of 0.4 μm (Coming Costar, Cambridge, Mass.). 2×10^5 the freshly purified naïve CD4^+ T cells were cultured in the outer wells of 24-well plate in medium containing 0.1 μg/ml anti-CD3 antibody and 2×10^5 APCs. […] [H^3]thymidine was added, and the cells were cultured for an additional 16 hours before harvest for the radioactivity counting with a liquid scintillation counter. […]

Experiment [4] concerns CD4+ Treg cells. Briefly: Naïve T cell proliferation assay with CD4+ Treg cell populations/clones with or without TLR ligands. It counts as cell-based, human. As to conditions: prostate tumor-derived (PTIL194); FIGS. 5A, 5B. The method, then: as §1, §2, §3
For experiment [5], the system named is BTIL31 γδ1 Treg cells. Put plainly: Naïve CD4+ T cell proliferation ([3H]-thymidine) in coculture with BTIL31 cells plus TLR ligands. The note with it: naïve CD4+ T cells:BTIL31 10:1, OKT3-coated plates; FIG. 13A. Format: cell-based, human. The method, then: (§4) In addition, naïve CD4^+ T cells were cultured in the presence of supernatants derived from BTIL31 cells pre-treated with or without the indicated TLR ligands. The proliferation of naïve CD4^+ T cells was determined by [^3H]-thymidine incorporation assay described herein. […] CFSE-labeled Naïve CD4^+ T cells cocultured with BTIL31 cells or its clones in the presence or absence of Poly-G3 in OKT3-coated 24-well plates. After 3 days of culture, cells were harvested and analyzed for divisions by FACS gated on the CFSE-labeled cells. CFSE-labeled Naïve CD4^+ T cells alone served as a control. […] BTIL31 cells were cultured in the presence or absence of Poly-G3 for 2 days, and then tested the ability of Poly-G3-treated and untreated BTIL31 cells to kill BC31 autologous tumor cells.
Naïve CD4^+ T cells were purified from PBMCs by using microbeads (Miltenyi Biotec). Naïve CD4^+ T cells (10^5/well) were cultured with regulatory T cells at a ratio of 10:1 in OKT3 (2 μg/ml)-coated, U bottomed 96-well plates containing the following TLR ligands. […] CpG-A (3 μg/ml), CpG-B (3 μg/ml) and poly-G3 oligonucleotides (3 μg/ml) were synthesized by Integrated DNA Technologies (Coralville, Iowa). All experiments were performed at least more than once. […]

Experiment [6] has as its system BTIL31 γδ1 Treg cells. Put plainly: Killing of BC31 autologous tumor cells by Poly-G3-treated BTIL31 cells. It counts as cell-based, human. The note with it: BTIL31 cultured with Poly-G3 for 2 days; FIG. 13C. The method, then:
(A). Reversal of the suppressive function of γδ 1 T cells by TLR8 ligands, but not by ligands for other TLRs. naïve CD4^+ T cells were cultured with BTIL31 cells at the ratio of 10:1 in the U bottom 96-well plates pre-coated with OKT3 in the presence of different TLR ligands: LPS, CpG-A, CpG-B, Imiquimod-R837, loxoribine, poly (I: C), ssRNA40/LyoVec, RNA33/LyoVec, pam3CSK4, flagellin and Poly-G3. In addition, naïve CD4^+ T cells were cultured in the presence of supernatants derived from BTIL31 cells pre-treated with or without the indicated TLR ligands. The proliferation of naïve CD4^+ T cells was determined by [^3H]-thymidine incorporation assay described herein. Results are one representative data of three independent experiments. (B) Restoration of CFSE-naïve CD4^+ T cell division by Poly-G3 oligonucleotides. CFSE-labeled Naïve CD4^+ T cells cocultured with BTIL31 cells or its clones in the presence or absence of Poly-G3 in OKT3-coated 24-well plates. After 3 days of culture, cells were harvested and analyzed for divisions by FACS gated on the CFSE-labeled cells. CFSE-labeled Naïve CD4^+ T cells alone served as a control. (C) Poly-G treatment had no effect on TRAIL-mediated killing activity. BTIL31 cells were cultured in the presence or absence of Poly-G3 for 2 days, and then tested the ability of Poly-G3-treated and untreated BTIL31 cells to kill BC31 autologous tumor cells. […]

In experiment [7] the test system is BTIL31 γδ1 Treg cells. Put plainly: Naïve CD4+ T cell proliferation with supernatants from TLR ligand-treated BTIL31 cells. Format: cell-based, human. The note with it: FIG. 13A. The method, then:
as §4
(§5) To test whether the suppressive function of BTIL31 γδ1 Treg cells could be reversed by TLR-8 ligands, cells were treated with a panel of TLR ligands and then test their ability to suppress naïve T cell proliferation. […] After 48 h, CFSE-labeled cells were gated for FACS analysis.

Experiment [8] has as its system BTIL31 γδ1 Treg cells. Briefly: CFSE-labeled naïve CD4+ T cell division in coculture with BTIL31 cells or clones. Format: cell-based, human. The note with it: coculture with BTIL31 bulk cells or clones, FACS, FIG. 13B. As to the method:
as §4, §5

On to `CC(C)Cn1cnc2c(N)nc3ccccc3c21` [imiquimod, Imiquimod], for which the “Effect on naturally occurring CD4+ CD25+ Treg cells” value in experiment [1] is on record as “little or no effect”. Besides, the “Restoration of Treg cell suppressed proliferation of naïve CD4+ T cells” value (shortened to “Restoration … of naïve CD4+ T cells”) in experiment [2] is given as “no effect”.
Regarding `C=CCn1c(=O)n([C@@H]2O[C@H](CO)[C@@H](O)[C@H]2O)c2nc(N)[nH]c(=O)c21` [loxoribine], in experiment [2], the “Restoration … of naïve CD4+ T cells” value is on record as “no effect”.
In the case of AAG*GA [Poly-G2], in experiment [3], the “Reversal of suppressive function of CD8+ Treg-containing cell populations and clones” value is given as “Reversal of suppressive function”. Also, the “Reversal of suppressive function of CD4+ Treg-containing cell populations and Treg cell clones” value in experiment [4] is given as “abolished; also recorded: Reversal of suppressive function”. In addition, the “Restoration … of naïve CD4+ T cells” value in experiment [2] is listed as “Restoration”.
Turning to AG*G*GA [Poly-G3], the “Reversal of the suppressive function of BTIL31 γδ1 Treg cells (proliferation of naïve CD4+ T cells)” value in experiment [5] is given as “reverse the suppressive function”. Moreover, the “Effect on TRAIL-mediated killing of BC31 tumor cells by BTIL31 cells” value in experiment [6] was “no effect”. The “Effect of supernatants from ligand-treated γδ1 Treg cells on proliferation of naïve CD4+ T cells” value in experiment [7] is reported as “enhanced rather than inhibited”. The “Restoration of proliferation or division of CFSE-labeled naïve CD4+ T cells” value in experiment [8] is “Restoration”; in experiment [8] (listed as poly-G3), “completely restored”.
Turning to pam3CSK4, the “Restoration … of naïve CD4+ T cells” value in experiment [2] is listed as “no effect”.
As to poly(I:C), the “Restoration … of naïve CD4+ T cells” value in experiment [2] is “no effect”.
